Results reported in PMC5773651, “Customised in vitro model to detect human metabolism-dependent idiosyncratic drug-induced liver injury” (Archives of Toxicology, 2017).
Where two headings read alike, the source gives them in different places. Marks after values point to notes of the source that are not given here.

Legend:
[1] = system: HepG2 cells transduced with AdCYP3A4; test: HCS hepatotoxicity assay (MEC, TR), AdCYP3A4-HepG2; type: cell-based, human; details: 24 h; for TR: TR = 100 x Cmax/lowest MEC; for MEC Apoptosis / MEC Calcium / MEC MMP / MEC Mitochondrial superoxide / MEC ROS: unit not given, tested range in µM
[2] = system: HepG2 cells transduced with AdCYP1A2; test: Cell viability (PI), IC50, AdCYP1A2-HepG2; type: cell-based; details: Homo sapiens, unit inferred, tested range in µM
Method: (§1) For subculturing purposes, cells were detached by treatment with 0.25% trypsin/0.02% EDTA at 37 °C. For the adenovirus infection studies, cells were seeded in 96-well plates (5000 cells/well) and adenovirus-containing medium was added 48 h later. After 24 h, cells were transferred to the adenovirus-free medium and cultured for an additional 24-h period prior to the incubations performed with the test chemicals. To optimise the expression of the functional enzymes in the adenovirus-transduced HepG2 (Ad-HepG2) cells, different doses (MOI, multiplicity of infection, defined as plaque formation units per cell) of each adenovirus were tested.
(§2) The drugs included in the study were chosen based on previous information about their hepatotoxicity. Information on the potential mechanisms implicated in the toxicity of each compound and the major enzymes involved in their metabolism is summarised in Table 1. HepG2 or Ad-HepG2 (48 h post-infection) cells were exposed for 24 h to eight concentrations of the tested compounds. Each experimental condition was repeated independently three times (with three wells measured each time). The stock solutions of compounds were prepared in DMSO and were conveniently diluted in the culture medium to obtain the desired final concentrations. The final DMSO concentration in the culture medium was 0.5% (v/v), and the control cultures were treated with the same amount of solvent.
(§3) Following treatments, cells were simultaneously loaded with several fluorescent dyes to measure multiple biomarkers of cell toxicity. […] Information about the probes is summarised in Supplementary Table S2.
(§4) After incubating with dyes, cells were imaged by the Scan^R system (Olympus, Germany). Dyes were excited, and their fluorescence was monitored at the excitation and emission wavelengths at appropriate filter settings. The collected images were analysed using the Scan^R analysis module, which allows the simultaneous quantification of subcellular structures that are stained by different fluorescent probes.

[3] = cited from earlier work
HepG2 cells [4] = test: Cell viability (PI), IC50, control HepG2 cells; type: cell-based; details: Homo sapiens; control non-transduced HepG2; 24 h; unit inferred, tested range in µM; read-out: IC50 (cell viability), C
[5] = system: HepG2 cells transduced with AdCYP1A2; test: HCS hepatotoxicity assay (MEC, TR), AdCYP1A2-HepG2; type: cell-based, human; details: 24 h; for MEC Apoptosis / MEC Calcium / MEC MMP / MEC Mitochondrial superoxide / MEC ROS: unit inferred, tested range in µM; for TR: TR = 100 x Cmax/lowest MEC
Method: as §1, §2, §3, §4

[6] = system: HepG2 cells transduced with AdCYP2C19; test: HCS hepatotoxicity assay (MEC, TR), AdCYP2C19-HepG2; type: cell-based, human; details: 24 h; for TR: TR = 100 x Cmax/lowest MEC; for MEC Apoptosis / MEC Calcium / MEC MMP / MEC Mitochondrial superoxide / MEC ROS: unit inferred, tested range in µM
Method: as §1, §2, §3, §4

[7] = system: HepG2 cells transduced with AdCYP2C19; test: Cell viability (PI), IC50, AdCYP2C19-HepG2; type: cell-based; details: Homo sapiens, unit inferred, tested range in µM
Method: as §1, §2, §3, §4

[8] = system: HepG2 cells transduced with AdCYP3A4; test: Cell viability (PI), IC50, AdCYP3A4-HepG2; type: cell-based; details: Homo sapiens, unit inferred, tested range in µM
Method: as §1, §2, §3, §4

[9] = ref Atienzar et al. ([2014]), Garside et al. ([2014]), Tolosa et al. ([2012b]); cited from earlier work
HepG2 cells [10] = details: human, 24 h
Method: as §1, §2, §3, §4

CC(C)C(=O)Nc1ccc([N+](=O)[O-])c(C(F)(F)F)c1 [Flutamide]
TR ([1]; AdCYP 3A4 1x): 2.5 | MEC Apoptosis ([1]; AdCYP 3A4 1x): 500 | MEC Calcium ([1]; AdCYP 3A4 1x): 250 | MEC MMP ([1]; AdCYP 3A4 1x): 750 | MEC Mitochondrial superoxide ([1]; AdCYP 3A4 1x): 500 | MEC ROS ([1]; AdCYP 3A4 1x): 250 | TR ([1]; AdCYP 3A4 4x): 5.0 | MEC Apoptosis ([1]; AdCYP 3A4 4x): 250 | MEC Calcium ([1]; AdCYP 3A4 4x): 250 | MEC MMP ([1]; AdCYP 3A4 4x): 500 | MEC Mitochondrial superoxide ([1]; AdCYP 3A4 4x): 250 | MEC ROS ([1]; AdCYP 3A4 4x): 125 | TR ([1]; AdCYP 3A4 10x): 5.0 | MEC Apoptosis ([1]; AdCYP 3A4 10x): 125 | MEC Calcium ([1]; AdCYP 3A4 10x): 250 | MEC MMP ([1]; AdCYP 3A4 10x): 250 | MEC Mitochondrial superoxide ([1]; AdCYP 3A4 10x): 125 | MEC ROS ([1]; AdCYP 3A4 10x): 125 | IC50 ([2]; ADV CYP1A2 x1, 24 h, read-out: IC50 (cell viability), ADV dose x1): 384 µM | IC50 ([2]; ADV CYP1A2 x4, 24 h, read-out: IC50 (cell viability), ADV dose x4): 261 µM | IC50 ([2]; ADV CYP1A2 x10, 24 h, read-out: IC50 (cell viability), ADV dose x10): 248 µM | Bioactivation ([3]; previous information): Yes | Enzyme: major enzyme(s) involved in the bioactivation (denoted as *) or detoxification of the drug ([3]; previous information): CYP1A2*, CYP2C19*, CYP3A4* | Toxicity (mechanisms of toxicity) ([3]; ref Ashrafian et al. [2007], Donato et al. [2009], Fromenty and Pessayre [1997], Rolo et al. [2000], Tolosa et al. [2012b]): MI, OS | DILI category ([3]; ref Gustafsson et al. ([2014])): Severe | IC50 (HepG2 cells [4]): 398 µM | MEC Apoptosis ([5]; AdCYP 1A2 1x): 250 µM | MEC Calcium ([5]; AdCYP 1A2 1x): 500 µM | MEC MMP ([5]; AdCYP 1A2 1x): 500 µM | MEC Mitochondrial superoxide ([5]; AdCYP 1A2 1x): 75 µM | MEC ROS ([5]; AdCYP 1A2 1x): 500 µM | TR ([5]; AdCYP 1A2 4x): 12.4 | MEC Apoptosis ([5]; AdCYP 1A2 4x): 250 µM | MEC Calcium ([5]; AdCYP 1A2 4x): 500 µM | MEC MMP ([5]; AdCYP 1A2 4x): 500 µM | MEC Mitochondrial superoxide ([5]; AdCYP 1A2 4x): 50 µM | MEC ROS ([5]; AdCYP 1A2 4x): 500 µM | TR ([5]; AdCYP 1A2 10x): 12.4 | MEC Apoptosis ([5]; AdCYP 1A2 10x): 125 µM | MEC Calcium ([5]; AdCYP 1A2 10x): 50 µM | MEC MMP ([5]; AdCYP 1A2 10x): 500 µM | MEC Mitochondrial superoxide ([5]; AdCYP 1A2 10x): 50 µM | MEC ROS ([5]; AdCYP 1A2 10x): 250 µM | TR ([6]; AdCYP 2C19 1x): 2.5 | MEC Apoptosis ([6]; AdCYP 2C19 1x): 250 µM | MEC Calcium ([6]; AdCYP 2C19 1x): 250 µM | MEC MMP ([6]; AdCYP 2C19 1x): 250 µM | MEC Mitochondrial superoxide ([6]; AdCYP 2C19 1x): 250 µM | MEC ROS ([6]; AdCYP 2C19 1x): 250 µM | TR ([6]; AdCYP 2C19 4x): 6.2 | MEC Apoptosis ([6]; AdCYP 2C19 4x): 250 µM | MEC Calcium ([6]; AdCYP 2C19 4x): 100 µM | MEC MMP ([6]; AdCYP 2C19 4x): 250 µM | MEC Mitochondrial superoxide ([6]; AdCYP 2C19 4x): 250 µM | MEC ROS ([6]; AdCYP 2C19 4x): 250 µM | TR ([6]; AdCYP 2C19 10x): 12.4 | MEC Apoptosis ([6]; AdCYP 2C19 10x): 100 µM | MEC Calcium ([6]; AdCYP 2C19 10x): 75 µM | MEC MMP ([6]; AdCYP 2C19 10x): 250 µM | MEC Mitochondrial superoxide ([6]; AdCYP 2C19 10x): 50 µM | MEC ROS ([6]; AdCYP 2C19 10x): 50 µM | IC50 ([7]; ADV CYP2C19 x1, 24 h, read-out: IC50 (cell viability), ADV dose x1): 344 µM | IC50 ([7]; ADV CYP2C19 x4, 24 h, read-out: IC50 (cell viability), ADV dose x4): 309 µM | IC50 ([7]; ADV CYP2C19 x10, 24 h, read-out: IC50 (cell viability), ADV dose x10): 255 µM | IC50 ([8]; ADV CYP3A4 x1, 24 h, read-out: IC50 (cell viability), ADV dose x1): 219 µM | IC50 ([8]; ADV CYP3A4 x4, 24 h, read-out: IC50 (cell viability), ADV dose x4): 176 µM | IC50 ([8]; ADV CYP3A4 x10, 24 h, read-out: IC50 (cell viability), ADV dose x10): 145 µM | Cmax [9]: 6.2 µM | MEC Apoptosis (HepG2 cells [10]): 500 µM | MEC Calcium (HepG2 cells [10]): 500 | MEC MMP (HepG2 cells [10]): 500 | MEC Mitochondrial superoxide (HepG2 cells [10]): 500 | MEC ROS (HepG2 cells [10]): 500 | TR (HepG2 cells [10]): 1.2
